The values below come from patent US6610750B1, “Treatment of osteoarthritis” (Laboratoires Negma, priority 2000, dated 2003).

In data set [1] the test system is prostaglandin biosynthesis. The conditions noted are these: cited from earlier work.
Data set [2] relates to patients with severe to moderate hip osteoarthritis. Description: three-year, randomized, double-blind, placebo-controlled study of radiological progression of hip osteoarthritis. It counts as in vivo, human. From the text: In order to further explore the potential usefulness of diacerein in the treatment of osteoarthritis, and to closely monitor the relevance of the effects of the treatment by using an accurate radiographic technique, the inventors carried out a 3-year, randomized, double-blind and placebo-controlled multicenter clinical trial in 507 patients with hip osteoarthritis. The unexpected result of the study was that diacerein has a beneficial effect as a structure-modifying treatment for osteoarthritis, as evidenced radiographically by a reduction of the destructive progression of hip osteoarthritis. The results of this study are reported in Dougados M., Nguyen M., Berdah L., Lequesne M., Mazières B., Vignon E. 1999; “Evaluation of the structural (radiological) effect of diacerein in osteoarthritis of the hip: a 3-year placebo controlled study”, Osteoarthritis and Cart 7, Suppl. A: 123, and are by reference thereto incorporated herein in their entirety.
In a three-year, randomized, double-blind, placebo-controlled study, 507 patients with severe to moderate hip osteoarthritis were assigned to receive either diacerein, 50 mg twice daily, or an identical placebo. The primary criterion of radiological progression of osteoarthritis was defined by a reduction in the joint space width or at least 0.5 mm during the study. The annual joint space narrowing rate (mm/year) was also determined in the patients who completed the treatment.
A total of 482 patients who had at least two radiographs were evaluated. Baseline characteristics of the 241 patients in each group were similar. In the placebo group, 62.7% of the patients had radiological progression, compared to 53.9% in the diacerein group (log-rank test: p=0.037). Treatment was followed for three years by 269 patients, among whom 55.1% in the placebo group and 41.2% in the diacerein group had radiological progression (log-rank test: p=0.007).

The subject of data set [3] is IL-1 and other cytokines (IL-6 and TNF). To be noted: several studies in vitro and with animal models of osteoarthritis; cited from earlier work.
A further data set concerns osteoarthritis. The conditions noted are these: after the start of the treatment; cited from earlier work.
The next data set is described as follows: solubility of diacerein. The format is physicochemical.

Structures are written as SMILES.

Take `CC(=O)Oc1cccc2c1C(=O)c1c(OC(C)=O)cc(C(=O)O)cc1C2=O` [diacerein, diacetylrhein]: the “inhibitory effect on the phospholiphase, cyclo-oxygenase or lipo-oxygenase pathways (prostaglandin biosynthesis)” value in data set [1] is on record as “no inhibitory effect”. Further, the “annual joint space narrowing rate” value in data set [2] (269 patients who completed three years, diacerein 50 mg twice daily, placebo 0.23±0.23, p=0.042) is given as 0.18±0.25 mm/year. The “patients with radiological progression (reduction in joint space width of at least 0.5 mm)” value in data set [2] (269 patients who followed treatment for three years, diacerein 50 mg twice daily, placebo 55.1%, log-rank p=0.007) came to 41.2%; in data set [2] (482 patients with at least two radiographs, 241 per group, diacerein 50 mg twice daily, placebo 62.7%, log-rank p=0.037), 53.9%. In addition, in data set [2] (over the three-year period), the “structure-modifying effect as compared to placebo” value is recorded as “statistically significant structure-modifying effect”. The “inhibition of IL-1 and other cytokines (IL-6 and TNF)” value in data set [3] is “inhibit”. Besides, the “time of onset of the effect” value in the data set with osteoarthritis is reported as at least 4 weeks. The solubility in alcohol result in “solubility of diacerein” (alcohol) is on record as “virtually insoluble”. The solubility in water result in the data set “solubility of diacerein” (water) is “virtually insoluble”.
